Measured values: ChEMBL document CHEMBL4376858, “Structure-Activity Relationships of Novel Thiazole-Based Modafinil Analogues Acting at Monoamine Transporters” (J Med Chem, 2020)

Tests used:
[1] = target: Sodium-dependent serotonin transporter (Homo sapiens, UniProt P31645); assay type: cell-based, HEK293
Description: Inhibition of wild type human SERT expressed in HEK293 cells assessed as inhibition of [3H]-5HT reuptake preincubated for 5 mins followed by [3H]5HT addition and measured after 1 min by liquid scintillation counting analysis

[2] = target: Sodium-dependent dopamine transporter (Homo sapiens, UniProt Q01959); assay: Inhibition of wild type human dopamine transporter expressed in HEK293 cells assessed as inhibition of [3H]dopamine reuptake preincubated for 5 mins followed by [3H]dopamine addition and measured after 1 min by liquid scintillation analysis; assay type: cell-based
[3] = target: Sodium-dependent noradrenaline transporter (Homo sapiens, UniProt P23975); assay: Inhibition of wild type human NET expressed in HEK293 cells assessed as inhibition of [3H]-MPP+ reuptake preincubated for 5 mins followed by [3H]MPP+ addition and measured after 3 mins by liquid scintillation counting analysis; assay type: cell-based
Sequence of Sodium-dependent noradrenaline transporter (P23975 whole entry): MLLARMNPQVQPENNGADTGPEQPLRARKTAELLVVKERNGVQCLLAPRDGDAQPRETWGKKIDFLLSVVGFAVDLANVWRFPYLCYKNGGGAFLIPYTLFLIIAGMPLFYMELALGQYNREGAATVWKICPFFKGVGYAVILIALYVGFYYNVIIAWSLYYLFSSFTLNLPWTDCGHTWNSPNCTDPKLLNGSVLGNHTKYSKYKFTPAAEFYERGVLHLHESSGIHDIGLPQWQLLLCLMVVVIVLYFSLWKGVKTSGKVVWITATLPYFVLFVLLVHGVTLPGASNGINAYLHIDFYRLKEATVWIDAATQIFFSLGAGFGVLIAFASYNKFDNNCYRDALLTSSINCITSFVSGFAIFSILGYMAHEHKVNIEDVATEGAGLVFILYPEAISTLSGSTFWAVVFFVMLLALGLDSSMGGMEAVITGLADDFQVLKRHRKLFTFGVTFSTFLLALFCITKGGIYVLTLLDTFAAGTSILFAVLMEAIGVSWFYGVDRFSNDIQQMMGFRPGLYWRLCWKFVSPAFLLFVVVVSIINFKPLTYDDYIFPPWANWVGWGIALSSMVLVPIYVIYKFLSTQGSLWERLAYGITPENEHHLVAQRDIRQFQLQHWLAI

Sequence of Sodium-dependent serotonin transporter (P31645 whole entry): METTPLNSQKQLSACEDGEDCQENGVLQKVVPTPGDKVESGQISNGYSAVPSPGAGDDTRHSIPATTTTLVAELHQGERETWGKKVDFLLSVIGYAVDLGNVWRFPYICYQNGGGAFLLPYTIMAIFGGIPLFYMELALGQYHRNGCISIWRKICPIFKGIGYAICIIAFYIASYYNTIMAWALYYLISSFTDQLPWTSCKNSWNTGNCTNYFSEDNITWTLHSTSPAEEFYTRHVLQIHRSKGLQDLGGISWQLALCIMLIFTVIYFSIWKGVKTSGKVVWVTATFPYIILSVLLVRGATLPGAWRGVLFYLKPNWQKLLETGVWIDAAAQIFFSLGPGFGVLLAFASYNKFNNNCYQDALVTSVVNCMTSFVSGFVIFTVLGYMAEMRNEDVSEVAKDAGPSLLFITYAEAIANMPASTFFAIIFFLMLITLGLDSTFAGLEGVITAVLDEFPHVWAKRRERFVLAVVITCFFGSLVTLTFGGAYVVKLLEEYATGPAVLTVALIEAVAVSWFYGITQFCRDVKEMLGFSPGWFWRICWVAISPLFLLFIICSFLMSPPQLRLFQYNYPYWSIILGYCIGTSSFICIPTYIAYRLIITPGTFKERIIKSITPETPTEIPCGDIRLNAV
Sequence of Sodium-dependent dopamine transporter (Q01959 whole entry): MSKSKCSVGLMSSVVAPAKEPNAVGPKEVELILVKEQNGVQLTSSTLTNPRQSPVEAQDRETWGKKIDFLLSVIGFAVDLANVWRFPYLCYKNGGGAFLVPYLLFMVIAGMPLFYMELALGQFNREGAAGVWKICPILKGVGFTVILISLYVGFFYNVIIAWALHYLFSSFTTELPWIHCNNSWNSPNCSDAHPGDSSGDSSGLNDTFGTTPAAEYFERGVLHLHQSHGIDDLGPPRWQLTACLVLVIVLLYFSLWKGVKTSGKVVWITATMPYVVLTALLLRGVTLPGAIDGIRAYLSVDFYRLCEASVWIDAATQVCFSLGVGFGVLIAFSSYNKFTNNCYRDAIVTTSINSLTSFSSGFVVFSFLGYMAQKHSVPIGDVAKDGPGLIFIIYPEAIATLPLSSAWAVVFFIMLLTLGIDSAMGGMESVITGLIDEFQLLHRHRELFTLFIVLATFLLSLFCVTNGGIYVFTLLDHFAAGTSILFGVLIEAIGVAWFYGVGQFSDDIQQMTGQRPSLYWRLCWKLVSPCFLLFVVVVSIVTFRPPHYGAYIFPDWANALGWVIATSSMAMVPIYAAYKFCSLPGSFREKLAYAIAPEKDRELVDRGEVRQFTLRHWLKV

| SMILES | IC50 ([1]; hek293) | IC50 ([2]; read-out: IC50) [µM] | IC50 ([3]; hek293) | IC50 ([3]; read-out: IC50) [µM] | IC50 ([1]; read-out: IC50) [µM] | IC50 ([2]; hek293) |
| --- | --- | --- | --- | --- | --- | --- |
| Cc1ccc(C(c2ccc(C)cc2)[S+]([O-])Cc2cncs2)cc1 (stereo in doubt; 34b) | Not Active | 356 | – | – | – | – |
| [O-][S@+](Cc1cncs1)C(c1ccc(F)cc1)c1ccc(F)cc1 | Not Active | 22.5 | Not Active | – | – | – |
| [O-][S+](Cc1cscn1)C(c1ccc(Cl)cc1)c1ccc(Cl)cc1 (stereo not drawn) | Not Active | 5.04 | – | 107 | – | – |
| [O-][S@@+](Cc1cncs1)C(c1ccc(F)cc1)c1ccc(F)cc1 | Not Active | 5.3 | – | 85 | – | – |
| [O-][S@+](Cc1cncs1)[C@H](c1ccccc1)c1ccc(Cl)cc1 | – | 7.4 | – | 36.5 | 140 | – |
| [O-][S+](Cc1cscn1)C(c1ccccc1)c1ccc(Br)cc1 (racemic) | Not Active | 1.85 | – | 109 | – | – |
| [O-][S@+](Cc1cncs1)[C@@H](c1ccccc1)c1ccc(Cl)cc1 | Not Active | 33 | Not Active | – | – | – |
| [O-][S+](Cc1nccs1)C(c1ccc(Cl)cc1)c1ccc(Cl)cc1 (stereo not drawn) | Not Active | 9.58 | Not Active | – | – | – |
| [O-][S+](Cc1cnc(C23CC4CC(CC(C4)C2)C3)s1)C(c1ccccc1)c1ccccc1 (stereo not drawn) | Not Active | – | – | – | – | – |
| Cc1ccc([C@@H](c2ccccc2)[S@+]([O-])Cc2cncs2)cc1 | – | 19.6 | – | 68.2 | 201 | – |
| CC(C)c1nc(C[S+]([O-])C(c2ccccc2)c2ccccc2)cs1 (stereo not drawn) | Not Active | 24.3 | Not Active | – | – | – |
| [O-][S@@+](Cc1cncs1)[C@@H](c1ccccc1)c1ccc(C(F)(F)F)cc1 | Not Active | 39.5 | Not Active | – | – | – |
| [O-][S@+](Cc1cncs1)C(c1ccc(Cl)cc1)c1ccc(Cl)cc1 | Not Active | 37.8 | Not Active | – | – | – |
| Cc1ccc(C(c2ccc(C)cc2)[S+]([O-])Cc2nccs2)cc1 (stereo not drawn) | Not Active | 29.4 | Not Active | – | – | – |
| COc1ccc(C(c2ccc(OC)cc2)[S+]([O-])Cc2cncs2)cc1 (stereo not drawn) | Not Active | 71.6 | Not Active | – | – | – |
| [O-][S@+](Cc1cncs1)[C@H](c1ccccc1)c1ccc(C(F)(F)F)cc1 | Not Active | – | Not Active | – | – | Not Active |
| [O-][S@+](Cc1cncs1)[C@H](c1ccccc1)c1ccc(Br)cc1 | – | 4.7 | – | 22.7 | 29.7 | – |
| [O-][S+](Cc1csc(C2CC2)n1)C(c1ccc(Cl)cc1)c1ccc(Cl)cc1 (stereo not drawn) | Not Active | 14 | Not Active | – | – | – |
| CCCc1nc(C[S+]([O-])C(c2ccccc2)c2ccccc2)cs1 (stereo not drawn) | Not Active | 28.4 | Not Active | – | – | – |
| Cc1nc(C[S+]([O-])C(c2ccccc2)c2ccccc2)c(C)s1 (stereo not drawn) | Not Active | 48.1 | Not Active | – | – | – |
| COc1ccc(C(c2ccc(OC)cc2)[S+]([O-])Cc2csc(C3CC3)n2)cc1 (stereo not drawn) | Not Active | 105 | Not Active | – | – | – |
| Cc1ccc([C@@H](c2ccccc2)[S@@+]([O-])Cc2cncs2)cc1 | Not Active | 6 | Not Active | – | – | – |

| SMILES | IC50 ([1]; hek293) | IC50 ([2]; read-out: IC50) [µM] | IC50 ([3]; hek293) | IC50 ([3]; read-out: IC50) [µM] | IC50 ([1]; read-out: IC50) [µM] | IC50 ([2]; hek293) |
| --- | --- | --- | --- | --- | --- | --- |
| [O-][S+](Cc1csc(-c2cccs2)n1)C(c1ccccc1)c1ccccc1 (racemic) | Not Active | 6.97 | – | 111 | – | – |
| COc1ccc([C@H](c2ccccc2)[S@+]([O-])Cc2cncs2)cc1 | Not Active | 65.1 | Not Active | – | – | – |
| Cc1ccc(C(c2ccc(C)cc2)[S+]([O-])Cc2cscn2)cc1 (stereo not drawn) | Not Active | 7.32 | Not Active | – | – | – |
| Cc1ccc(C(c2ccc(C)cc2)[S+]([O-])Cc2csc(C3CC3)n2)cc1 (stereo not drawn) | Not Active | – | Not Active | – | – | Not Active |
| [O-][S@@+](Cc1cncs1)C(c1ccc(Cl)cc1)c1ccc(Cl)cc1 | Not Active | 4.1 | – | 89.8 | – | – |
| Cc1ncsc1C[S+]([O-])C(c1ccccc1)c1ccccc1 (stereo not drawn) | Not Active | 44.1 | Not Active | – | – | – |
| Cc1ncc(C[S+]([O-])C(c2ccccc2)c2ccccc2)s1 (stereo not drawn) | Not Active | 68.1 | Not Active | – | – | – |
| [O-][S@@+](Cc1cncs1)[C@H](c1ccccc1)c1ccc(F)cc1 | Not Active | 7.4 | – | 104 | – | – |
| [O-][S@+](Cc1cncs1)[C@@H](c1ccccc1)c1ccc(F)cc1 | Not Active | 27.8 | Not Active | – | – | – |
| Cc1cnc(C[S+]([O-])C(c2ccccc2)c2ccccc2)s1 (stereo not drawn) | Not Active | 65.6 | Not Active | – | – | – |
| COc1ccc([C@@H](c2ccccc2)[S@+]([O-])Cc2cncs2)cc1 | – | 36.3 | – | 261 | 24.7 | – |
| Cc1ccc([C@H](c2ccccc2)[S@+]([O-])Cc2cncs2)cc1 | Not Active | 134 | Not Active | – | – | – |
| [O-][S+](Cc1cscn1)C(c1ccc(F)cc1)c1ccc(F)cc1 (stereo not drawn) | Not Active | 6.76 | Not Active | – | – | – |
| Cc1ccc([C@H](c2ccccc2)[S@@+]([O-])Cc2cncs2)cc1 | Not Active | 3.3 | – | 164 | – | – |
| [O-][S+](Cc1csc(C2CC2)n1)C(c1ccccc1)c1ccccc1 (stereo not drawn) | – | 4.1 | – | 687 | 436 | – |
| Cc1ccc(C(c2ccc(C)cc2)[S+]([O-])Cc2cncs2)cc1 (stereo in doubt; 34a) | – | 6.8 | Not Active | – | 264 | – |
| [O-][S+](Cc1cncs1)C(c1ccc(F)cc1)c1ccc(F)cc1 (racemic) | Not Active | 6.21 | – | 121 | – | – |
| Cc1nc(C[S+]([O-])C(c2ccccc2)c2ccccc2)sc1C (stereo not drawn) | – | 33.3 | – | 107 | 201 | – |
| CCc1nc(C[S+]([O-])C(c2ccccc2)c2ccccc2)cs1 (stereo not drawn) | Not Active | 14.6 | Not Active | – | – | – |
| [O-][S@@+](Cc1cncs1)[C@@H](c1ccccc1)c1ccc(F)cc1 | Not Active | 2 | – | 129 | – | – |
| [O-][S@@+](Cc1cncs1)[C@H](c1ccccc1)c1ccc(Cl)cc1 | Not Active | 3.6 | – | 38.6 | – | – |
| [O-][S@+](Cc1cncs1)[C@H](c1ccccc1)c1ccc(F)cc1 | – | 8.3 | – | 230 | 145 | – |

| SMILES | IC50 ([1]; hek293) | IC50 ([2]; read-out: IC50) [µM] | IC50 ([3]; hek293) | IC50 ([3]; read-out: IC50) [µM] | IC50 ([1]; read-out: IC50) [µM] | IC50 ([2]; hek293) |
| --- | --- | --- | --- | --- | --- | --- |
| CC(C)(C)c1ncc(C[S+]([O-])C(c2ccccc2)c2ccccc2)s1 (stereo not drawn) | Not Active | 59.7 | Not Active | – | – | – |
| [O-][S@+](Cc1cncs1)[C@@H](c1ccccc1)c1ccc(C(F)(F)F)cc1 | Not Active | – | Not Active | – | – | Not Active |
| [O-][S@@+](Cc1cncs1)[C@H](c1ccccc1)c1ccc(C(F)(F)F)cc1 | Not Active | 37.7 | Not Active | – | – | – |
| COc1ncc(C[S+]([O-])C(c2ccccc2)c2ccccc2)s1 (stereo not drawn) | Not Active | 72.5 | – | 139 | – | – |
| Cc1nc(CC[S+]([O-])C(c2ccccc2)c2ccccc2)cs1 (stereo not drawn) | Not Active | 61.4 | Not Active | – | – | – |
| [O-][S@@+](Cc1cncs1)[C@@H](c1ccccc1)c1ccc(Cl)cc1 | Not Active | 2.3 | – | 72 | – | – |
| [O-][S@@+](Cc1cncs1)[C@H](c1ccccc1)c1ccc(Br)cc1 | Not Active | 4.2 | – | 67.8 | – | – |
| [O-][S+](Cc1cscn1)C(c1ccccc1)c1ccccc1 (racemic) | Not Active | 6.66 | Not Active | – | – | – |
| [O-][S+](Cc1cncs1)C(c1ccc(Cl)cc1)c1ccc(Cl)cc1 (racemic) | – | 4.17 | – | 45.5 | 221 | – |
| [O-][S@+](Cc1cncs1)[C@@H](c1ccccc1)c1ccc(Br)cc1 | Not Active | 22.4 | – | 365 | – | – |
| [O-][S@@+](Cc1cncs1)[C@@H](c1ccccc1)c1ccc(Br)cc1 | Not Active | 1.6 | – | 566 | – | – |
| Cc1ccc(C(c2ccc(C)cc2)[S+]([O-])Cc2cncs2)cc1 (racemic) | – | 10.6 | – | 215 | – | – |
| COc1ccc([C@H](c2ccccc2)[S@@+]([O-])Cc2cncs2)cc1 | Not Active | 3.8 | – | 196 | – | – |
| Cc1nc(C)c(C[S+]([O-])C(c2ccccc2)c2ccccc2)s1 (stereo not drawn) | Not Active | 87.1 | Not Active | – | – | – |
| Cc1nc(CSC(c2ccccc2)c2ccccc2)cs1 | Not Active | 91.4 | – | 130 | – | – |
| COc1ccc([C@@H](c2ccccc2)[S@@+]([O-])Cc2cncs2)cc1 | – | 12.2 | Not Active | – | 363 | – |
| CCCCc1nc(C[S+]([O-])C(c2ccccc2)c2ccccc2)cs1 (stereo not drawn) | Not Active | 13.5 | – | 164 | – | – |
| [O-][S+](Cc1nccs1)C1c2ccccc2-c2ccccc21 (stereo not drawn) | Not Active | – | Not Active | – | – | Not Active |
| [O-][S+](Cc1cnc(Cl)s1)C(c1ccccc1)c1ccccc1 (stereo not drawn) | Not Active | 24.3 | – | 108 | – | – |
| [O-][S+](Cc1csc(Cl)n1)C(c1ccccc1)c1ccccc1 (racemic) | Not Active | 3.02 | Not Active | – | – | – |
